Source: patent publication US5219884A, “Immunosuppressant” (Taito Co., Ltd., priority 1990, dated 1993)
Converted amounts (≈) assume the structure as drawn. Where two headings read alike, the source gives them in different places.

Key:
K562 = experiment: in vitro; type: cell-based, human
Method: (§1) Cytotoxicity to human tumor cell lines was examined as follows:
(§2) Cells of human cell lines, K562, MOLT4, U937, HL60, KATOIII, KB, PC-6, PC-14 and CCRF-CEM were separately suspended to the concentration of 2×10^5 cells/ml in the RPMI1640 culture medium supplemented with 20% FCS. Fifty μl of this suspension was added to each well of 96-well microculture plates to which 50 μl of the test solution had been added. After culturing at 37° C. in an atmosphere of 5% carbon dioxide for 72 hours, the absorbancy at 550 nm was measured in the same way as the colorimetry using MTT in Experimental Example 1, and the percent suppression was calculated in the same manner as in Experimental Example 14, which was used as the index of cytotoxicity.

HL60 = experiment: in vitro; type: cell-based, human
Method: as §1, §2

CCRF-CEM = experiment: in vitro; type: cell-based, human
Method: as §1, §2

in vitro = type: cell-based, human; settings: human, read-out: Suppression
Method: as §1, §2

PC-14 = experiment: in vitro; type: cell-based, human
Method: as §1, §2

KB = experiment: in vitro; type: cell-based, human
Method: as §1, §2

U937 = experiment: in vitro; type: cell-based, human
Method: as §1, §2

[1] = cytotoxicity to tumor cell line MOLT4; type: cell-based, human; settings: human, molt4 cells, read-out: Suppression
Method: as §1, §2

MOLT4 = experiment: cytotoxicity to tumor cell line MOLT4; type: cell-based, human
Method: as §1, §2

mouse L929 cells = experiment: cytotoxicity to mouse L929 cells; type: cell-based; settings: 550 nm
Method: Cytotoxicity to mouse L929 cells was assayed as follows:
L929 cells were suspended to the concentration of 1.5×10^5 cells/ml in the F12 culture medium supplemented with 10% FCS. One hundred μl of the suspension was added to each well of 96-well microculture plates, and cultured at 37° C. in an atmosphere of 5% carbon dioxide for 24 hours, to which 100 μl of the test solution was added and cultured for further 48 hours. After the culture, 100 μl of the supernatant was removed and the absorbancy at 550 nm was measured in the same way as the colormetry using MTT in Experimental Example 1. The percent suppression was calculated by the following formula used as the index of cytotoxicity. [formula]

[2] = test system: mouse allogenic mixed lymphocyte reaction (BALB/c responder, C57BL/6 stimulator spleen cells); experiment: mouse allogenic mixed lymphocyte reaction (MLR), blastogenesis by 3H-thymidine uptake; type: cell-based
Method: The immunosuppressive activity of the compounds (I) and their lactones was assayed by using mouse allogenic mixed lymphocyte reaction (hereinafter sometimes abbreviated as MLR). Mouse allogenic MLR was carried out by mixed culture of the BALB/c mouse (H-2^d) spleen cells as the responder cells and the mitomycin C-treated C57BL/6 (H-2^b) spleen cells as the stimulator cells in equal amounts.
The responder cells were prepared as follows: The spleen was resected from 5- to 6-week-old male BALB/c mice, and single cell suspension of spleen cells was prepared by using the RPMI1640 culture medium (containing 60 μg/ml of kanamycin sulfate, 2 mM of L-glutamine, 10 mM of N-2-hydroxyethylpiperazine-N'-2-ethanesulfonate (HEPES) and 0.1% sodium hydrogencarbonate) to which heat-inactivated fetal calf serum (hereinaftersometimes abbreviated as FCS) had been added to 5%. After hemolytic treatment, the cell suspension was adjusted to a concentration of 10^7 cells/ml by using the RPMI1640 culture medium supplemented with 10^-4 M 2-mercaptoethanol and 20% FCS, and was used as the responder cell suspension.
The stimulator cells were prepared as follows:
The spleen was resected from 5- to 6-week-old male C57BL/6 mice, and single cell suspension of spleen cells was prepared by using the RPMI1640 culture medium. After hemolytic treatment, the cells were treated with 40 μg/ml of mitomycin C at 37° C. for 60 minutes. After washing three times, the concentration of the cell suspension was adjusted to 10^7 cells/ ml by using the RPMI1640 culture medium supplemented with 10^-4 M 2-mercaptoethanol and 20% FCS, and was used as the stimulator cell suspension.
Fifty μl of the responder cell suspension, 50μl of the stimulator cell suspension prepared by the above method, and 100 μl of the test substance were placed in 96-well microculture plates, and were cultured at 37° C. in an atmosphere of 5% carbon dioxide for 4 days.
The blastogenesis of lymphocytes was assayed by a method of ^3 H-thymidine uptake as an index. That is, after termination of the culture, 0.5 μCi/well of ^3 H-thymidine was added and cultured for 4 hours. Cells were harvested by a cell-harvester, and the radioactivity incorporated into the cells was determined by a liquid scintillation counter to obtain the index of blastogenesis of lymphocytes in the mouse allogenic MLR. The suppression of the mouse allogenic MLR was evaluated by calculating the percent suppression by the following formula. [formula]
The test substance was dissolved in methanol or suspended in a mixture of methanol and acetic acid, and then diluted with the RPMI1640 culture medium.

[3] = Mus musculus, Lymphocyte, read-out: Suppression

SMILES: CCCCCCC(=O)CCCCCC/C=C/CC(O)C(O)C(N)(CO)C(=O)O (stereo not shown) [Example 1]
- Absorbancy (K562; 0.1 μg/ml): 0.886
- Absorbancy (K562; 1.0 μg/ml): 0.905
- Absorbancy (K562; 10.0 μg/ml): 0.929
- Absorbancy (K562; 100.0 μg/ml): 0.583
- Absorbancy (HL60; 0.1 μg/ml): 0.402
- Absorbancy (HL60; 1.0 μg/ml): 0.390
- Absorbancy (HL60; 10.0 μg/ml): 0.377
- Absorbancy (HL60; 100.0 μg/ml): 0.101
- Absorbancy (CCRF-CEM; 0.01 μg/ml): 0.678
- Absorbancy (CCRF-CEM; 0.1 μg/ml): 0.709
- Absorbancy (CCRF-CEM; 1.0 μg/ml): 0.660
- Absorbancy (CCRF-CEM; 10.0 μg/ml): 0.637
- Absorbancy (CCRF-CEM; 100.0 μg/ml): 0.013
- cytotoxicity at 72 h (in vitro; hl60 cells, 1.0 μg/ml): 38.2%
- cytotoxicity at 72 h (in vitro; pc-14 cells, 1.0 μg/ml): 7%
- Absorbancy (PC-14; 0.01 μg/ml): 0.801
- Absorbancy (PC-14; 0.1 μg/ml): 0.770
- Absorbancy (PC-14; 1.0 μg/ml): 0.732
- Absorbancy (PC-14; 10.0 μg/ml): 0.751
- Absorbancy (PC-14; 100.0 μg/ml): 0.074
- Absorbancy (KB; 0.01 μg/ml): 0.898
- Absorbancy (KB; 0.1 μg/ml): 0.865
- Absorbancy (KB; 1.0 μg/ml): 0.879
- Absorbancy (KB; 10.0 μg/ml): 0.886
- Absorbancy (KB; 100.0 μg/ml): 0.025
- Absorbancy (U937; 0.1 μg/ml): 0.619
- Absorbancy (U937; 1.0 μg/ml): 0.567
- Absorbancy (U937; 10.0 μg/ml): 0.497
- Absorbancy (U937; 100.0 μg/ml): 0.156
- cytotoxicity at 72 h ([1]; 0.1 μg/ml): 9.4%
- Absorbancy (MOLT4; 0.1 μg/ml): 0.560
- Absorbancy (MOLT4; 1.0 μg/ml): 0.559
- Absorbancy (MOLT4; 10.0 μg/ml): 0.499
- Absorbancy (MOLT4; 100.0 μg/ml): 0.074
- Absorbancy (mouse L929 cells; 1 μg/ml): 0.699
- Absorbancy (mouse L929 cells; 10 μg/ml): 0.693
- Absorbancy (mouse L929 cells; 100 μg/ml): 0.321
- 3H-thymidine uptake ([2]; 0.001 μg/ml): 14760 cpm
- 3H-thymidine uptake ([2]; 0.01 μg/ml): 6436 cpm
- 3H-thymidine uptake ([2]; 0.1 μg/ml): 686 cpm
- 3H-thymidine uptake ([2]; 1 μg/ml): 698 cpm
- IC50 ([2]; Mus musculus, Lymphocyte, read-out: 50%-inhibition concentration (IC50)): 7.1 ng/mL (≈ 0.0177 µM)
- inhibition at 0.001 µg/mL [2, 3]: 0%
- inhibition at 0.01 µg/mL [2, 3]: 59.2%
- inhibition at 0.1 µg/mL [2, 3]: 100%
- inhibition at 1 µg/mL [2, 3]: 100%

SMILES: CCCCCCC(=O)CCCCCC/C=C/CC1OC(=O)C(N)(CO)C1O (stereo not shown) [Example 4]
- Absorbancy (K562; 0.1 μg/ml): 0.524
- Absorbancy (K562; 1.0 μg/ml): 0.563
- Absorbancy (K562; 10.0 μg/ml): 0.525
- Absorbancy (K562; 100.0 μg/ml): 0.007
- Absorbancy (HL60; 0.1 μg/ml): 0.265
- Absorbancy (HL60; 1.0 μg/ml): 0.300
- Absorbancy (HL60; 10.0 μg/ml): 0.273
- Absorbancy (HL60; 100.0 μg/ml): 0.008
- Absorbancy (CCRF-CEM; 0.1 μg/ml): 0.564
- Absorbancy (CCRF-CEM; 1.0 μg/ml): 0.556
- Absorbancy (CCRF-CEM; 10.0 μg/ml): 0.389
- Absorbancy (CCRF-CEM; 100.0 μg/ml): 0.004
- cytotoxicity at 72 h (in vitro; ccrf-cem cells, 0.1 μg/ml): 11.3%
- cytotoxicity at 72 h (in vitro; ccrf-cem cells, 1.0 μg/ml): 12.6%
- cytotoxicity at 72 h (in vitro; ccrf-cem cells, 10.0 μg/ml): 37.4%
- cytotoxicity at 72 h (in vitro; ccrf-cem cells, 100.0 μg/ml): 99.4%
- cytotoxicity at 72 h (in vitro; hl60 cells, 0.1 μg/ml): 23.4%
- cytotoxicity at 72 h (in vitro; hl60 cells, 1.0 μg/ml): 13.3%
- cytotoxicity at 72 h (in vitro; hl60 cells, 10.0 μg/ml): 21.1%
- cytotoxicity at 72 h (in vitro; hl60 cells, 100.0 μg/ml): 97.7%
- cytotoxicity at 72 h (in vitro; k562 cells, 0.1 μg/ml): 14.7%
- cytotoxicity at 72 h (in vitro; k562 cells, 1.0 μg/ml): 8.3%
- cytotoxicity at 72 h (in vitro; k562 cells, 10.0 μg/ml): 14.5%
- cytotoxicity at 72 h (in vitro; k562 cells, 100.0 μg/ml): 98.9%
- cytotoxicity at 72 h (in vitro; katoiii cells, 0.1 μg/ml): 5.3%
- cytotoxicity at 72 h (in vitro; katoiii cells, 1.0 μg/ml): 6.7%
- cytotoxicity at 72 h (in vitro; katoiii cells, 10.0 μg/ml): 25.8%
- cytotoxicity at 72 h (in vitro; katoiii cells, 100.0 μg/ml): 97.9%
- cytotoxicity at 72 h (in vitro; kb cells, 0.1 μg/ml): 19%
- cytotoxicity at 72 h (in vitro; kb cells, 1.0 μg/ml): 2.5%
- cytotoxicity at 72 h (in vitro; kb cells, 10.0 μg/ml): 33.5%
- cytotoxicity at 72 h (in vitro; kb cells, 100.0 μg/ml): 99%
- cytotoxicity at 72 h (in vitro; pc-14 cells, 0.1 μg/ml): 0%
- cytotoxicity at 72 h (in vitro; pc-14 cells, 1.0 μg/ml): 0%
- cytotoxicity at 72 h (in vitro; pc-14 cells, 10.0 μg/ml): 0%
- cytotoxicity at 72 h (in vitro; pc-14 cells, 100.0 μg/ml): 95.3%
- cytotoxicity at 72 h (in vitro; u937 cells, 0.1 μg/ml): 16.1%
- cytotoxicity at 72 h (in vitro; u937 cells, 1.0 μg/ml): 0%
- cytotoxicity at 72 h (in vitro; u937 cells, 10.0 μg/ml): 2.9%
- cytotoxicity at 72 h (in vitro; u937 cells, 100.0 μg/ml): 99%
- Absorbancy (PC-14; 0.1 μg/ml): 0.656
- Absorbancy (PC-14; 1.0 μg/ml): 0.679
- Absorbancy (PC-14; 10.0 μg/ml): 0.657
- Absorbancy (PC-14; 100.0 μg/ml): 0.030
- Absorbancy (KB; 0.1 μg/ml): 0.884
- Absorbancy (KB; 1.0 μg/ml): 1.065
- Absorbancy (KB; 10.0 μg/ml): 0.726
- Absorbancy (KB; 100.0 μg/ml): 0.012
- Absorbancy (U937; 0.1 μg/ml): 0.313
- Absorbancy (U937; 1.0 μg/ml): 0.384
- Absorbancy (U937; 10.0 μg/ml): 0.362
- Absorbancy (U937; 100.0 μg/ml): 0.004
- cytotoxicity at 72 h ([1]; 0.1 μg/ml): 14%
- cytotoxicity at 72 h ([1]; 1.0 μg/ml): 14.2%
- cytotoxicity at 72 h ([1]; 10.0 μg/ml): 22.8%
- cytotoxicity at 72 h ([1]; 100.0 μg/ml): 97.1%
- Absorbancy (MOLT4; 0.1 μg/ml): 0.351
- Absorbancy (MOLT4; 1.0 μg/ml): 0.350
- Absorbancy (MOLT4; 10.0 μg/ml): 0.315
- Absorbancy (MOLT4; 100.0 μg/ml): 0.012
- 3H-thymidine uptake ([2]; 0.001 μg/ml): 29598 cpm
- 3H-thymidine uptake ([2]; 0.01 μg/ml): 10394 cpm
- 3H-thymidine uptake ([2]; 0.1 μg/ml): 1414 cpm
- inhibition at 0.001 µg/mL ([2]; Mus musculus, Lymphocyte, 0.001 μg/ml, read-out: Suppression): 0.4%
- inhibition at 0.01 µg/mL ([2]; Mus musculus, Lymphocyte, 0.01 μg/ml, read-out: Suppression): 70%
- inhibition at 0.1 µg/mL ([2]; Mus musculus, Lymphocyte, 0.1 μg/ml, read-out: Suppression): 100%
